Source: the supplement of paper PMC13207355

Assays:
Details in all cases: exposure time: 72 h
E34 [1] = patient-derived glioblastoma stem cells of proneural subtype; assay: surviving fraction (nuclei count normalised to DMSO); higher = more cells surviving (less toxic)
E21 [2] = patient-derived glioblastoma stem cells of mesenchymal subtype; assay: as above
FT3469 [3] = normal neural stem cell line; assay: as above
E13 [4] = patient-derived glioblastoma stem cells of classical subtype; assay: as above
E31 [5] = patient-derived glioblastoma stem cells of proneural subtype; assay: as above
E28 [6] = patient-derived glioblastoma stem cells of classical subtype; assay: as above
E57 [7] = patient-derived glioblastoma stem cells of mesenchymal subtype; assay: as above
E34 [8] = assay: phenotypic distance (Euclidean, principal components) from DMSO controls (arbitrary units); higher = stronger morphological change
E21 [9] = assay: as above
FT3469 [10] = assay: as above
E13 [11] = assay: as above
E31 [12] = assay: as above
E28 [13] = assay: as above
E57 [14] = assay: as above
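Wherever phenotypic distance (Euclidean, principal components) from DMSO controls is given: cell Painting imaging in 384-well plates, CellProfiler features reduced to at least 20 principal components, Euclidean distance versus same-plate DMSO vehicle wells (0.1% v/v), median over six images per well.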
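Wherever surviving fraction (nuclei count normalised to DMSO) is given: nuclei counted by high-content imaging of Hoechst-stained cells in laminin-coated 384-well plates, relative to 0.1% DMSO vehicle wells, with staurosporine as cell-death control.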

## Cc1ccc(/C=N/NC(=O)c2n[nH]c3c2CCCC3)cc1 [Suprafenacine]
E34 [1]; 4.1 nM
  surviving fraction: 1.01
E34 [1]; 12.3 nM
  surviving fraction: 0.905
E34 [1]; 37 nM
  surviving fraction: 0.938
E34 [1]; 111.1 nM
  surviving fraction: 0.69
E34 [1]; 333.3 nM
  surviving fraction: 0.409
E34 [1]; 1000 nM
  surviving fraction: 0.375
E34 [1]; 3000 nM
  surviving fraction: 0.237
E21 [2]; 4.1 nM
  surviving fraction: 0.963
E21 [2]; 12.3 nM
  surviving fraction: 0.931
E21 [2]; 37 nM
  surviving fraction: 0.982
E21 [2]; 111.1 nM
  surviving fraction: 0.453
E21 [2]; 333.3 nM
  surviving fraction: 0.0832
E21 [2]; 1000 nM
  surviving fraction: 0.113
E21 [2]; 3000 nM
  surviving fraction: 0.0664
FT3469 [3]; 4.1 nM
  surviving fraction: 0.873
FT3469 [3]; 12.3 nM
  surviving fraction: 0.804
FT3469 [3]; 37 nM
  surviving fraction: 0.848
FT3469 [3]; 111.1 nM
  surviving fraction: 0.492
FT3469 [3]; 333.3 nM
  surviving fraction: 0.527
FT3469 [3]; 1000 nM
  surviving fraction: 0.471
FT3469 [3]; 3000 nM
  surviving fraction: 0.295
E13 [4]; 4.1 nM
  surviving fraction: 0.909
E13 [4]; 12.3 nM
  surviving fraction: 0.853
E13 [4]; 37 nM
  surviving fraction: 0.86
E13 [4]; 111.1 nM
  surviving fraction: 0.536
E13 [4]; 333.3 nM
  surviving fraction: 0.144
E13 [4]; 1000 nM
  surviving fraction: 0.235
E13 [4]; 3000 nM
  surviving fraction: 0.1
E31 [5]; 4.1 nM
  surviving fraction: 0.95
E31 [5]; 12.3 nM
  surviving fraction: 0.845
E31 [5]; 37 nM
  surviving fraction: 0.709
E31 [5]; 111.1 nM
  surviving fraction: 0.454
E31 [5]; 333.3 nM
  surviving fraction: 0.0666
E31 [5]; 1000 nM
  surviving fraction: 0.0444
E31 [5]; 3000 nM
  surviving fraction: 0.0399
E28 [6]; 4.1 nM
  surviving fraction: 0.954
E28 [6]; 12.3 nM
  surviving fraction: 0.896
E28 [6]; 37 nM
  surviving fraction: 0.922
E28 [6]; 111.1 nM
  surviving fraction: 0.742
E28 [6]; 333.3 nM
  surviving fraction: 0.325
E28 [6]; 1000 nM
  surviving fraction: 0.31
E28 [6]; 3000 nM
  surviving fraction: 0.217
E57 [7]; 4.1 nM
  surviving fraction: 0.914
E57 [7]; 12.3 nM
  surviving fraction: 0.922
E57 [7]; 37 nM
  surviving fraction: 0.883
E57 [7]; 111.1 nM
  surviving fraction: 0.685
E57 [7]; 333.3 nM
  surviving fraction: 0.0911
E57 [7]; 1000 nM
  surviving fraction: 0.0842
E57 [7]; 3000 nM
  surviving fraction: 0.0511
E34 [8]; 4.1 nM
  phenotypic distance: 0.442
E34 [8]; 12.3 nM
  phenotypic distance: 1.02
E34 [8]; 37 nM
  phenotypic distance: 0.706
E34 [8]; 111.1 nM
  phenotypic distance: 1.69
E34 [8]; 333.3 nM
  phenotypic distance: 5.34
E34 [8]; 1000 nM
  phenotypic distance: 6.45
E34 [8]; 3000 nM
  phenotypic distance: 8.8
E21 [9]; 4.1 nM
  phenotypic distance: 0.928
E21 [9]; 12.3 nM
  phenotypic distance: 0.73
E21 [9]; 37 nM
  phenotypic distance: 1.18
E21 [9]; 111.1 nM
  phenotypic distance: 4.45
E21 [9]; 333.3 nM
  phenotypic distance: 9.28
E21 [9]; 1000 nM
  phenotypic distance: 6.44
E21 [9]; 3000 nM
  phenotypic distance: 9.19
FT3469 [10]; 4.1 nM
  phenotypic distance: 1.07
FT3469 [10]; 12.3 nM
  phenotypic distance: 1.84
FT3469 [10]; 37 nM
  phenotypic distance: 1.31
FT3469 [10]; 111.1 nM
  phenotypic distance: 2.86
FT3469 [10]; 333.3 nM
  phenotypic distance: 3.59
FT3469 [10]; 1000 nM
  phenotypic distance: 3.7
FT3469 [10]; 3000 nM
  phenotypic distance: 6.28
E13 [11]; 4.1 nM
  phenotypic distance: 0.782
E13 [11]; 12.3 nM
  phenotypic distance: 0.752
E13 [11]; 37 nM
  phenotypic distance: 1.13
E13 [11]; 111.1 nM
  phenotypic distance: 3.22
E13 [11]; 333.3 nM
  phenotypic distance: 7.1
E13 [11]; 1000 nM
  phenotypic distance: 7.86
E13 [11]; 3000 nM
  phenotypic distance: 5.88
E31 [12]; 4.1 nM
  phenotypic distance: 0.29
E31 [12]; 12.3 nM
  phenotypic distance: 1.07
E31 [12]; 37 nM
  phenotypic distance: 1.19
E31 [12]; 111.1 nM
  phenotypic distance: 2.14
E31 [12]; 333.3 nM
  phenotypic distance: 6.25
E31 [12]; 1000 nM
  phenotypic distance: 9.97
E31 [12]; 3000 nM
  phenotypic distance: 12.3
E28 [13]; 4.1 nM
  phenotypic distance: 0.615
E28 [13]; 12.3 nM
  phenotypic distance: 0.72
E28 [13]; 37 nM
  phenotypic distance: 0.724
E28 [13]; 111.1 nM
  phenotypic distance: 1.34
E28 [13]; 333.3 nM
  phenotypic distance: 3.15
E28 [13]; 1000 nM
  phenotypic distance: 4.1
E28 [13]; 3000 nM
  phenotypic distance: 5.78
E57 [14]; 4.1 nM
  phenotypic distance: 1.71
E57 [14]; 12.3 nM
  phenotypic distance: 0.929
E57 [14]; 37 nM
  phenotypic distance: 0.819
E57 [14]; 111.1 nM
  phenotypic distance: 3.04
E57 [14]; 333.3 nM
  phenotypic distance: 5.2
E57 [14]; 1000 nM
  phenotypic distance: 5.41
E57 [14]; 3000 nM
  phenotypic distance: 6.18

## Cc1cc(CN)cc(C)c1NC(=O)c1ccc(-c2cc(Cl)ccc2Cl)o1
E34 [1]; 3000 nM
  surviving fraction: 0.829
E21 [2]; 3000 nM
  surviving fraction: 0.862
FT3469 [3]; 3000 nM
  surviving fraction: 0.883
E13 [4]; 3000 nM
  surviving fraction: 0.865
E31 [5]; 3000 nM
  surviving fraction: 0.856
E28 [6]; 3000 nM
  surviving fraction: 0.919
E57 [7]; 3000 nM
  surviving fraction: 0.964
E34 [8]; 3000 nM
  phenotypic distance: 0.825
E21 [9]; 3000 nM
  phenotypic distance: 0.968
FT3469 [10]; 3000 nM
  phenotypic distance: 0.784
E13 [11]; 3000 nM
  phenotypic distance: 1.34
E31 [12]; 3000 nM
  phenotypic distance: 1.86
E28 [13]; 3000 nM
  phenotypic distance: 0.815
E57 [14]; 3000 nM
  phenotypic distance: 1.29

## CC(=O)O[C@@]12CO[C@@H]1C[C@H](O)[C@@]1(C)C(=O)[C@H](O)C3=C(C)[C@@H](OC(=O)[C@H](O)[C@@H](NC(=O)OC(C)(C)C)c4ccccc4)C[C@@](O)([C@@H](OC(=O)c4ccccc4)[C@H]21)C3(C)C [Docetaxel]
E34 [1]; 4.1 nM
  surviving fraction: 0.43
E34 [1]; 12.3 nM
  surviving fraction: 0.452
E34 [1]; 37 nM
  surviving fraction: 0.497
E34 [1]; 111.1 nM
  surviving fraction: 0.38
E34 [1]; 333.3 nM
  surviving fraction: 0.438
E34 [1]; 1000 nM
  surviving fraction: 0.423
E34 [1]; 3000 nM
  surviving fraction: 0.551
E21 [2]; 4.1 nM
  surviving fraction: 0.256
E21 [2]; 12.3 nM
  surviving fraction: 0.291
E21 [2]; 37 nM
  surviving fraction: 0.273
E21 [2]; 111.1 nM
  surviving fraction: 0.267
E21 [2]; 333.3 nM
  surviving fraction: 0.324
E21 [2]; 1000 nM
  surviving fraction: 0.366
E21 [2]; 3000 nM
  surviving fraction: 0.306
FT3469 [3]; 4.1 nM
  surviving fraction: 0.529
FT3469 [3]; 12.3 nM
  surviving fraction: 0.614
FT3469 [3]; 37 nM
  surviving fraction: 0.452
FT3469 [3]; 111.1 nM
  surviving fraction: 0.513
FT3469 [3]; 333.3 nM
  surviving fraction: 0.572
FT3469 [3]; 1000 nM
  surviving fraction: 0.497
FT3469 [3]; 3000 nM
  surviving fraction: 0.556
E13 [4]; 4.1 nM
  surviving fraction: 0.244
E13 [4]; 12.3 nM
  surviving fraction: 0.245
E13 [4]; 37 nM
  surviving fraction: 0.23
E13 [4]; 111.1 nM
  surviving fraction: 0.267
E13 [4]; 333.3 nM
  surviving fraction: 0.26
E13 [4]; 1000 nM
  surviving fraction: 0.245
E13 [4]; 3000 nM
  surviving fraction: 0.233
E31 [5]; 4.1 nM
  surviving fraction: 0.175
E31 [5]; 12.3 nM
  surviving fraction: 0.112
E31 [5]; 37 nM
  surviving fraction: 0.146
E31 [5]; 111.1 nM
  surviving fraction: 0.157
E31 [5]; 333.3 nM
  surviving fraction: 0.134
E31 [5]; 1000 nM
  surviving fraction: 0.164
E31 [5]; 3000 nM
  surviving fraction: 0.2
E28 [6]; 4.1 nM
  surviving fraction: 0.337
E28 [6]; 12.3 nM
  surviving fraction: 0.342
E28 [6]; 37 nM
  surviving fraction: 0.315
E28 [6]; 111.1 nM
  surviving fraction: 0.374
E28 [6]; 333.3 nM
  surviving fraction: 0.359
E28 [6]; 1000 nM
  surviving fraction: 0.377
E28 [6]; 3000 nM
  surviving fraction: 0.43
E57 [7]; 4.1 nM
  surviving fraction: 0.0834
E57 [7]; 12.3 nM
  surviving fraction: 0.0809
E57 [7]; 37 nM
  surviving fraction: 0.078
E57 [7]; 111.1 nM
  surviving fraction: 0.0677
E57 [7]; 333.3 nM
  surviving fraction: 0.0873
E57 [7]; 1000 nM
  surviving fraction: 0.0902
E57 [7]; 3000 nM
  surviving fraction: 0.109
E34 [8]; 4.1 nM
  phenotypic distance: 4.14
E34 [8]; 12.3 nM
  phenotypic distance: 3.76
E34 [8]; 37 nM
  phenotypic distance: 3.17
E34 [8]; 111.1 nM
  phenotypic distance: 3.96
E34 [8]; 333.3 nM
  phenotypic distance: 3.99
E34 [8]; 1000 nM
  phenotypic distance: 3.89
E34 [8]; 3000 nM
  phenotypic distance: 3.75
E21 [9]; 4.1 nM
  phenotypic distance: 5.81
E21 [9]; 12.3 nM
  phenotypic distance: 6.42
E21 [9]; 37 nM
  phenotypic distance: 6.23
E21 [9]; 111.1 nM
  phenotypic distance: 6.28
E21 [9]; 333.3 nM
  phenotypic distance: 6.05
E21 [9]; 1000 nM
  phenotypic distance: 6.55
E21 [9]; 3000 nM
  phenotypic distance: 6.95
FT3469 [10]; 4.1 nM
  phenotypic distance: 4.07
FT3469 [10]; 12.3 nM
  phenotypic distance: 4.02
FT3469 [10]; 37 nM
  phenotypic distance: 3.93
FT3469 [10]; 111.1 nM
  phenotypic distance: 4.46
FT3469 [10]; 333.3 nM
  phenotypic distance: 4.18
FT3469 [10]; 1000 nM
  phenotypic distance: 4.11
FT3469 [10]; 3000 nM
  phenotypic distance: 4.57
E13 [11]; 4.1 nM
  phenotypic distance: 5.48
E13 [11]; 12.3 nM
  phenotypic distance: 5.06
E13 [11]; 37 nM
  phenotypic distance: 5.13
E13 [11]; 111.1 nM
  phenotypic distance: 5.06
E13 [11]; 333.3 nM
  phenotypic distance: 5.38
E13 [11]; 1000 nM
  phenotypic distance: 5.66
E13 [11]; 3000 nM
  phenotypic distance: 5.29
E31 [12]; 4.1 nM
  phenotypic distance: 3.61
E31 [12]; 12.3 nM
  phenotypic distance: 4.17
E31 [12]; 37 nM
  phenotypic distance: 4.04
E31 [12]; 111.1 nM
  phenotypic distance: 3.51
E31 [12]; 333.3 nM
  phenotypic distance: 4.45
E31 [12]; 1000 nM
  phenotypic distance: 4.14
E31 [12]; 3000 nM
  phenotypic distance: 3.26
E28 [13]; 4.1 nM
  phenotypic distance: 3.2
E28 [13]; 12.3 nM
  phenotypic distance: 3.04
E28 [13]; 37 nM
  phenotypic distance: 3.71
E28 [13]; 111.1 nM
  phenotypic distance: 4
E28 [13]; 333.3 nM
  phenotypic distance: 4.1
E28 [13]; 1000 nM
  phenotypic distance: 3.51
E28 [13]; 3000 nM
  phenotypic distance: 3.95
E57 [14]; 4.1 nM
  phenotypic distance: 5.76
E57 [14]; 12.3 nM
  phenotypic distance: 5.68
E57 [14]; 37 nM
  phenotypic distance: 5.22
E57 [14]; 111.1 nM
  phenotypic distance: 5.42
E57 [14]; 333.3 nM
  phenotypic distance: 5.4
E57 [14]; 1000 nM
  phenotypic distance: 5.4
E57 [14]; 3000 nM
  phenotypic distance: 5.26
